What was measured:
[1] = system: patients with asthma; assay: Trials 1-3: treatment of asthma patients with enoximone; type: in vivo, human
Procedure: A patient was to be operated in connection with a mammary carcinoma. They had known difficult-to-treat asthma and before the operation they received 30 mg prednisone per day as extra medication in addition to their beta-2 agonists and parasympatholytics treatment, but their breathing remained considerably obstructed. Ten minutes before the start of the anaesthesia they were given 25 mg enoximone intravenously. […] Ultimately, after a single administration of enoximone, they stayed symptom-free for two months. Based on the above experience, a second patient was treated. According to their lung specialist, they suffered from untreatable asthma and had been completely bed-ridden for a long time, among other reasons due to high doses of the traditional medication (next to some other drugs they received 50 mg prednisone per day). Inhalation therapy worked for a few minutes only due to the severe bronchoconstriction, the drying of the airways and the consequential sticky obstructive mucus. The patient received 20 mg enoximone orally in two doses of 10 mg at a 15 minutes interval. […] They remained symptom-free for 7 days. During the first day after the first administration, the patient coughed a lot, which loosened the sticky mucus. After 7 days, they received another 10 mg dose of enoximone orally, after which they again remained symptom-free for 7 days. They were ultimately able to drastically reduce their prednisone use to 5 mg per day (complete phasing out was not possible in connection with their Mixed Connected Tissue Disease). They were able to build up their condition relatively quickly with a maintenance dose of 10 mg of enoximone once every 4 days. After 3 months, they were able to perform their normal household activities again and go back to work. After another month, they were even able to do some sport with caution. Following trials 1 and 2, several patients with light to severe asthma symptoms, who up to that time had been treated exclusively with the traditional therapy with little or no results, were also treated with enoximone. […] Their individual dosage depended on the severity of the disorder. The dosage ranged from 0.1 to 0.3 mg/kg body weight, mostly in a maintenance dosage of twice a week, based on the time of recurrence of the symptoms.

[2] = system: HDM allergic airway inflammation; assay: HDM asthma model, lower enoximone treatment frequency; type: in vivo, mice
Procedure: To induce airway inflammation, mice were anaesthetized with isofluorane and treated intratracheally (i.t.) with 1-10 μg house dust mite (HDM; Greer Laboratories) allergen extract in 80 μL phosphate buffered saline (PBS) on day 0 or using PBS only. Ten days later, anesthetized mice were challenged with 1-10 μg HDM in 50 μL PBS intranasally (i.n.) for 5 consecutive days. Mice were sacrificed 24 hr after last challenge and broncho alveolar lavage was performed by flushing the lungs 3 times with 1 ml PBS containing Ethylenediaminetetraacetic acid (EDTA, Sigma-Aldrich).
Next we investigate if it is possible to lower the active enoximone treatment frequency when given it admixed to the HDM challenge solution (FIG. 2A). We compare the daily treatment frequency with once in two days (each other day) and once in three days. Mice treated with HDM admixed with diluent show clear eosinophilic airway inflammation (FIG. 2B). […] Moreover along this line also numbers of T-cells drop when treated with enoximone (FIG. 2B). […] Moreover the proportion of IL-4 producing T-cells is lower when enoximone is given less frequently than daily (FIG. 3).
(A) Experimental HDM asthma design showing intratracheal sensitisation (s) of 10 μg HDM or PBS as control and challenge (c) with 10 μg HDM intra nasal. The following schedules were used diluent (d) (5 μl) during challenge (for 5 days ddddd), enoximone (5 μl 5 mg/ml) during challenge (for 5 days eeeee), enoximone once in two days (edede) or (deded) and once in three days enoximone (edded). (B) Total cells and quantification of flow cytometric analyses of eosinophils and CD4 T-cells in BAL of PBS treated (black bars) and several frequencies of enoximone treated mice (gray bars). Results are expressed as means±SEM.
FIG. 3 Quantification of flow cytometric analyses of cytokine producing CD4 T-cells and proportion of IL-4 positive CD4 T-cells in BAL. Results are expressed as means±SEM. n=3-8 animals per group. Statistical evaluations were performed only between different treatments of groups (*p<0.05).

[3] = system: Human basophils stimulated with anti IgE; assay: Basophil degranulation assay; type: cell-based; settings: anti IgE stimulation
Procedure: PBMCs including basophils were treated with diluent or several doses of enoximone at 37° C. for half an hour. Next the cells were washed and incubated with anti IgE antibodies 5 µg/ml for 20 minutes at 37° C. for 20 minutes washed again at 4° C. and consequently stained for flowcytometric with CD123-BV650, CD203c-PE, CD107a-FITC, HLA-DR-PerCPCy5.5 and FcεRI-APC at 4° C. for 30 minutes. Cells were acquire with a LSRII and analyzed with Flowjo X. Basophils were identified as FcεRI+, CD123+ and HLA-DR− cells. Degranulated and/or activated basophils stained positive for CD203c and CD107a. 100% degranulated basophils were set as the % of degranulated basophils treated with diluent and stimulated with 5 µg/ml anti IgE. Proportion of inhibition was calculated as % of degranulated basophils divided by the maximal % of diluent treated degranulated basophils.
FIG. 4 Human PBMCs including basophils were treated with diluent or several doses of enoximone and cells were activated by incubation with anti IgE antibodies. Data plotted show the mean proportion of inhibition was calculated as % degranulated basophils (CD123^+FceRI^+HLA-DR^− CD107a^+CD203c^+ cells) pretreated with enoximone divided by % of diluent treated degranulated basophils (n=3).

[4] = metabolised to a less active sulfoxide, excreted via the kidneys; cited from earlier work
[5] = system: HDM driven allergic airway inflammation; assay: House dust mite (HDM) allergic airway inflammation model, treatment strategy 1 (allergy induction); type: in vivo, C57bl/6 mice; settings: orally (2.5 and 0.25 μg), treatment during challenge, FIG. 5B

For CSc1ccc(C(=O)c2[nH]c(=O)[nH]c2C)cc1 [enoximone, 1,3-dihydro-4-methyl-5-[4-(methylthio)benzoyl]-2H-imidazol-2-on], the symptom-free period ([1]; Trial 1: after a single administration of 25 mg intravenously) was “two months”, the “time to disappearance of asthma symptoms” value ([1]; Trial 1: person, difficult-to-treat asthma, 25 mg intravenously) was “within a few minutes” and the symptom-free period ([1]; Trial 2: after 20 mg orally in two doses of 10 mg at a 15 minutes interval) was 7 days. The symptom-free period ([1]; Trial 2: after another 10 mg dose orally after 7 days) was 7 days, the “time until able to perform normal household activities and go back to work” value ([1]; Trial 2: maintenance dose of 10 mg once every 4 days) was 3 months and the “prednisone use after reduction” value ([1]; Trial 2: previously 50 mg prednisone per day) was 5 mg per day. For the same compound, the “time to disappearance of asthma symptoms” value ([1]; Trial 2: untreatable asthma, after first oral dose of 10 mg) was “within two minutes”, the “progress of patients with light to severe asthma symptoms” value ([1]; Trial 3: 0.1 to 0.3 mg/kg body weight, mostly twice a week) was “remarkable and fast progress” and the “allergic and immune-related symptoms” value ([1]; Trial 3: five patients) was “substantially milder or even disappeared altogether”. For the same compound, the “time to improved breathing” value ([1]; administered orally in cases of asthma) was “within ten minutes”, the time to reaction ([1]; all the patients treated) was “within a few minutes” and the symptom-free period ([1]; all the patients treated, after only one dose) was “remained days or weeks symptom-free”. For the same compound, the “duration of improvement of the dyspnoea symptoms” value ([1]; as maintenance medication) was “from a few days to several weeks or several months”, the “duration of the effects of the compound” value ([1]; compared with the half life of 4 hours) was “lasting well beyond a month” and the side effects ([1]; disappeared after one day, lowering the dose offered a solution) was “two patients reported headaches on the day of intake”. The “time to improved breathing” value ([1]; intravenous administration in cases of asthma) was “within as little as one minute”, the “numbers of T-cells in BAL” value ([2]; 25 μg enoximone admixed with HDM challenge, FIG. 2B) was “drop” and the “number of cytokine (IL-4, IL-5, IL-13, IL-17 and IFNγ) producing T-cells in BAL” value ([2]; 25 μg enoximone admixed with HDM challenge, FIG. 3) was “drop in number”. For the same compound, the eosinophilic inflammation ([2]; 25 μg enoximone admixed with HDM challenge, given every day, FIG. 2B) was “clear reduction”, the eosinophilic inflammation ([2]; 25 μg enoximone admixed with HDM challenge, once in three days, FIG. 2B) was “clear reduction” and the eosinophilic inflammation ([2]; 25 μg enoximone admixed with HDM challenge, once in two days (each other day), FIG. 2B) was “clear reduction”. For the same compound, the “proportion of IL-4 producing T-cells” value ([2]; enoximone given less frequently than daily, FIG. 3) was “lower”, the inhibition at 20 µM ([3]; Homo sapiens, 20 μM enoximone, FIG. 4, read-out: inhibition of basophil activation/degranulation (CD107a and CD203c positivity)) was greater than 50% and the inhibition at 1000 µM ([3]; Homo sapiens, 1000 μM enoximone, FIG. 4, read-out: inhibition of basophil activation/degranulation (CD107a and CD203c positivity)) was greater than 90%. The “basophil activation (CD107a and CD203c positivity)” value ([3]; enoximone 20-1000 μM) was “reduced basophil activation”, the half life [4] was “approximately 4 hours” and the “eosinophil numbers in BAL, HDM/PBS treated mice compared to enoximone treated mice” value [5] was “significantly higher”.

Source: patent US10071077B2, “Use of enoximone in the treatment of atopic immune-related disorders, in pharmaceutical composition as well as in pharmaceutical preparation” (BREAKTHROUGH MEDICAL RESEARCH B.V., priority 2014, dated 2018)
